Data taken from patent US20130123358A1, “Metabolic Benefits to Butyrate as a Chronic Diet Supplement” (priority 2009, published 2013).

Columns and labels:
[1] = tested on: HDAC; assay: Histone deacetylase assay on muscle nuclear extracts of treated mice; format: in vivo, mouse; conditions: butyrate 5% w/w in HFD, 16 weeks on HFD, muscle nuclear extracts
Description: Histone deacetylase assay were conducted according to the instruction from the manufacturer (#17-320, Upstate). Briefly, 10 ug of muscle nuclear extract (as an enzyme) was incubated with [3H]-acetyl CoA (#TRK688, Amersham) radio labeled histone H4 peptide (25,000 CPM, as a substrate) at 37° C. for 12 hours by shaking Released [3H]-acetate was measured using a scintillation counter. The nuclear extract was prepared according to a protocol described elsewhere (17). The muscle tissues were collected and snap-frozen in liquid nitrogen within 2 min of cervical dislocation of mice. Tissue samples were stored at −80° C. until further processing. The muscle sample of 200˜300 mg was cut into small pieces on dry ice and homogenized in 1 ml of lysate buffer. After centrifugation at 10,000 rpm for 1 minute at 4° C., the nucleus was pelleted and collected. After being washed, the nucleus pellet was treated with extraction buffer. The supernatant was collected for nuclear protein after centrifugation at 14,000 rpm for 5 minutes at 4° C.
Without wishing to be bound by this theory, one activity of butyrate could be related to inhibition of HDAC. Sodium butyrate inhibits the class I and class II histone deacetylases (HDACs). To test this possibility, HDAC activity was examined in the skeletal muscle of mice at 16 weeks on HFD (FIG. 7G). The assay was conducted with the nuclear extracts of muscle samples. […]

[2] = tested on: liver cells; conditions: isolated rat liver; cited from earlier work
[3] = tested on: L6 muscle cells; assay: Immunoblot of L6 myotubes; format: cell-based; conditions: 500 μM sodium butyrate, 4 hours
Description: To further test the effect of butyrate on muscle, AMPK and PGC-1α were assayed in L6 muscle cells treated with butyrate. Differentiated L6 myotubes were starved in 0.25% BSA DMEM for overnight. The cells were treated with 500 μM of sodium butyrate for 4 hours and analyzed in an immunoblot. […] In the same culture, the PGC-1α protein was increased (FIG. 6A).

[4] = tested on: C57BL/6J mice on high fat diet; assay: Body temperature in cold response (4° C.); format: in vivo, mouse; conditions: butyrate 5% w/w in HFD 10 weeks, ambient 4° C.
Description: Body temperature was measured in the cold room with ambient temperature at 4° C. Animals were sedated and restrained for less than 30 sec in the measurement. A Thermalert model TH-8 temperature monitor (Physitemp, Clifton, N.J.) was used with probe placed in the rectum at 2.5 cm in depth.
The association of increased food intake with elevated energy expenditure implicated a role of brown adipose tissue, which is responsible for adaptive thermogenesis in response to diet or cold (20-22). Diet-induced thermogenesis reduces obesity in both humans and animals (23). […] To determine the thermogenic function, a cold-response experiment was conducted by exposing the mice to a cold environment with an ambient temperature of 4° C. for 90 min. The mice had been on HFD for 10 weeks. The body core temperature was monitored three times during exposure by measuring the rectal temperature. In the control mice, the body temperature decreased with time and was 34.5° C. after 90 min in the cold (FIG. 4A). In the butyrate-treated mice, the body temperature dropped to 35° C. transiently at 30 minutes, and then returned to 36° C. for the rest of time.

[5] = tested on: epididymal fat pad; assay: White adipose tissue: fat pad morphology and gene expression; format: in vivo, mouse
Description: Total RNA was extracted from frozen tissues (kept at −80° C.) using Tri-Reagent (T9424, Sigma) as described elsewhere (16). Taqman RT-PCR primer and probe were used to determine mRNA for PGC-1α (Mm00447183_m1), UCP-1 (Mm00494069_m1), PPARδ (Mm01305434_m1) and CPT1b (Mm00487200_m1). The reagents were purchased from Applied Biosystems (Foster City, Calif.). Mouse ribosome 18S rRNA_s1 (without intron-exon junction) was used as an internal control. Reaction was conducted with 7900 HT Fast real time PCR System (Applied Biosystems, Foster City, Calif.).
Fresh tissues (muscle, fat and liver) were collected at 16 weeks of age after 12 weeks butyrate feeding and fixed in 10% neutral buffered formalin solution (HT50-1-2, Sigma). The tissue slides were obtained through serial cross-section cutting at 8 um thickness and processed with a standard procedure. Briefly, the slides were deparaffinated and stained in haematoxylin (#101542, Surgipath) for 15 min, and rinsed in water until sections are blue. Then, slides were stained in Eosin (E4009, Sigma), dehydrated quickly in 95% ethanol and treated with […]. The sections were mounted and photographed with Nikon microscope (Eclipse TS100, Japan).
The epididymal fat pad was examined to test this effect of butyrate. The tissue was collected at 13 weeks on HFD (18 weeks in age) and used to make a tissue slide (FIG. 3A). After H&E staining, the slide was photographed under a microscope at magnification 20× (FIG. 3A). Gene expression was determined by qRT-PCR at day 8 after induction of cell differentiation of 3T3-L1 cells. Butyrate was used at 100 uM during induction of adipogenesis. Triglycerides in the 3T3-L1 mature adipocyte cells were quantified using Oil red 0 staining at the day 8 post-induction of differentiation (FIG. 3C). In addition, levels of mRNA for leptin, adiponectin, F4/80 (macrophage marker), TNF-α, and iNOS were determined in the epididymal fat and their relative levels are presented in bar figures (FIGS. 3D-3H). In FIGS. 3A-3H, data are represented as mean±SE (n=8). *P<0.05, **P<0.001.

[6] = butyrate 5% w/w in HFD vs control, mRNA

CCCC(=O)[O-].[Na+] [sodium butyrate]
HDAC activity in skeletal muscle, reduction [1]: 50%
energy metabolism (liver cells) [2]: impairment
AMPK phosphorylation [3]: increased
PGC-1α protein [3]: increased
p38 phosphorylation [3]: increased
body temperature (rectal) at 30 minutes in the cold [4]: 35 °C
body temperature (rectal) for the rest of time in the cold ([4]; up to 90 min): 36 °C
TNF-α expression in epididymal fat [5, 6]: reduced
iNOS expression in epididymal fat [5, 6]: reduced
leptin expression in epididymal fat [5, 6]: lower level
macrophage marker F4/80 expression in epididymal fat [5, 6]: reduced
epididymal fat pad mass, less than control ([5]; butyrate 5% w/w in HFD, 13 weeks): 80%
adipocyte size, smaller than control ([5]; butyrate 5% w/w in HFD, 13 weeks, H&E): 50%
adiponectin expression in epididymal fat, higher than control ([5]; butyrate 5% w/w in HFD, mRNA): 50%
